In patent US9232796B2, “Herbicidal compositions comprising 4-amino-3-chloro-5-fluoro-6-(4-chloro-2-fluoro-3-methoxyphenyl) pyridine-2-carboxylic acid or a derivative thereof and acetyl-CoA carboxylase (ACCase) inhibitors” (DOW AGROSCIENCES LLC, priority 2012, dated 2016):

How the values were obtained:
SCPJU [1] = test: Example I postemergence foliar-applied, greenhouse, direct seeded rice weeds; format: in vivo, Schoenoplectus juncoides (Roxb.) Palla
Description: (§1) Seeds or nutlets of the desired test plant species were planted in a soil matrix prepared by mixing a loam or sandy loam soil (e.g., 28.6 percent silt, 18.8 percent clay, and 52.6 percent sand, with a pH of about 5.8 and an organic matter content of about 1.8 percent) and calcareous grit in an 80 to 20 ratio. The soil matrix was contained in plastic pots with a volume of 1 quart and a surface area of 83.6 square centimeters (cm^2). When required to ensure good germination and healthy plants, a fungicide treatment and/or other chemical or physical treatment was applied. The plants were grown for 8-22 days in a greenhouse with an approximate 14 hr. photoperiod which was maintained at about 29° C. during the day and 26° C. during the night. Nutrients (Peters Excel® 15-5-15 5-Ca 2-Mg and iron chelate) were applied in the irrigation solution as needed and water was added on a regular basis. Supplemental lighting was provided with overhead metal halide 1000-Watt lamps as necessary. The plants were employed for testing when they reached the first through fourth true leaf stage.
(§2) Treatments consisted of the acid or esters of 4-amino-3-chloro-5-fluoro-6-(4-chloro-2-fluoro-3-methoxy-phenyl)pyridine-2-carboxylic acid (Compound A), each formulated as an SC (suspension concentrate), and various herbicidal components alone and in combination.
(§3) Other herbicidal components were applied on an acid equivalent (ae) or active ingredient (ai) basis and included acetyl coA carboxylase (ACCase)-inhibiting herbicides (cyclohexanedione and aryloxyphenoxypropionate chemical classes) cyhalofop-butyl formulated as Clincher® SF (285 gr ai/L EC), diclofop-methyl formulated as Hoelon® 3EC, fenoxaprop-p-ethyl+isoxadifen-ethyl formulated as RiceStar® HT (0.58 lb./gal EC), fenoxaprop-p-ethyl+mefenpyr diethyl formulated as Puma® IEC, metamifop formulated as Metamifop EC, haloxyfop-methyl formulated as Gallant Super®, fluazifop-p-butyl formulated as Fusilade® DX, quizalofop-p-ethyl formulated as Assure® II, profoxydim formulated as Aura® 20EC, clethodim applied as Intensity®, sethoxydim formulated as Poast®, and tralkoxydim formulated as Achieve®.
(§4) Treatment requirements were calculated based upon the rates being tested, the concentration of active ingredient or acid equivalent in the formulation, and a 12 mL application volume at a rate of 187 L/ha.
(§5) For treatments comprised of formulated compounds, measured amounts of compounds were placed individually in 25 mL glass vials and diluted in a volume of 1.25% (v/v) Agri-Dex® crop oil concentrated to obtain 12× stock solutions. […] Application solutions were prepared by adding an appropriate amount of each stock solution (e.g., 1 mL) and diluted to the appropriate final concentrations with the addition of 10 mL of an aqueous mixture of 1.25% (v/v) crop oil concentrate so that the final spray solutions contained 1.25+/−0.05% (v/v) crop oil concentrate.
(§6) All stock solutions and applications solutions were visually inspected for compound compatibility prior to application. Spray solutions were applied to the plant material with an overhead Mandel track sprayer equipped with a 8002E nozzles calibrated to deliver 187 L/ha over an application area of 0.503 m^2 at a spray height of 18 to 20 inches (46 to 50 cm) above average plant canopy height. Control plants were sprayed in the same manner with the solvent blank.
(§7) The treated plants and control plants were placed in a greenhouse as described above and watered by sub-irrigation to prevent wash-off of the test compounds. After approximately 3 weeks, the condition of the test plants as compared with that of the untreated plants was determined visually and scored on a scale of 0 to 100 percent where 0 corresponds to no injury or growth inhibition and 100 corresponds to complete kill. […]

ECHCO = test: as above; format: in vivo, Echinochloa colona (L.) Link
Description: as §1, §2, §3, §4, §5, §6, §7

IPOHE = test: as above; format: in vivo, Ipomoea hederacea Jacq.
Description: as §1, §2, §3, §4, §5, §6, §7

CYPRO = test: Example II in-water applied, greenhouse, transplanted paddy rice weeds; format: in vivo, Cyperus rotundus L.
Description: (§8) Weed seeds or nutlets of the desired test plant species were planted in puddled soil (mud) prepared by mixing a shredded, non-sterilized mineral soil (50.5 percent silt, 25.5 percent clay, and 24 percent sand, with a pH of about 7.6 and an organic matter content of about 2.9 percent) and water at a 1:1 volumetric ratio. The prepared mud was dispensed in 365 mL aliquots into 16-ounce (oz.) non-perforated plastic pots with a surface area of 86.59 square centimeters (cm^2) leaving a headspace of 3 centimeters (cm) in each pot. Mud was allowed to dry overnight prior to planting or transplanting. Rice seeds were planted in Sun Gro MetroMix® 306 planting mixture, which typically has a pH of 6.0 to 6.8 and an organic matter content of about 30 percent, in plastic plug trays. Seedlings at the second or third leaf stage of growth were transplanted into 860 mL of mud contained in 32-oz. non-perforated plastic pots with a surface area of 86.59 cm^2 4 days prior to herbicide application. The paddy was created by filling the headspace of the pots with 2.5 to 3 cm of water. […] The plants were grown for 4-22 days in a greenhouse with an approximate 14 hr. photoperiod which was maintained at about 29° C. during the day and 26° C. during the night. Nutrients were added as Osmocote® (19:6:12, N:P:K+minor nutrients) at 2 g per 16-oz. pot and 4 g per 32-oz. pot. Water was added on a regular basis to maintain the paddy flood, and supplemental lighting was provided with overhead metal halide 1000-Watt lamps as necessary. The plants were employed for testing when they reached the first through fourth true leaf stage.
(§9) Treatments consisted of the acid or esters of 4-amino-3-chloro-5-fluoro-6-(4-chloro-2-fluoro-3-methoxy-phenyl)pyridine-2-carboxylic acid (compound A) each formulated as an SC (suspension concentrate) and various herbicidal components alone and in combination.
(§10) For formulated compounds, a measured amount was placed in an individual 100 or 200 mL glass vial and was dissolved in a volume of 1.25% (v/v) Agri-Dex® crop oil concentrate to obtain application solutions.
(§11) Applications were made by injecting with a pipetter appropriate amounts of the application solutions, individually and sequentially, into the aqueous layer of the paddy. Control plants were treated in the same manner with the solvent blank. Applications were made so that all treated plant material received the same concentrations of acetone and crop oil concentrate.
(§12) The treated plants and control plants were placed in a greenhouse as described above and water was added as needed to maintain a paddy flood. After approximately 3 weeks the condition of the test plants as compared with that of the untreated plants was determined visually and scored on a scale of 0 to 100 percent where 0 corresponds to no injury or growth inhibition and 100 corresponds to complete kill.
(§13) Colby's equation was used to determine the herbicidal effects expected from the mixtures (Colby, S. R. 1967. Calculation of the synergistic and antagonistic response of herbicide combinations. Weeds 15:20-22.).
(§14) The following equation was used to calculate the expected activity of mixtures containing two active ingredients, A and B: Expected=A+B−(A×B/100)

SCPJU [2] = test: as above; format: in vivo, Schoenoplectus juncoides (Roxb.) Palla; details: in-water
Description: as §8, §9, §10, §11, §12, §13, §14

BRAPP = test: Example I postemergence foliar-applied, greenhouse, direct seeded rice weeds; format: in vivo, Brachiaria platyphylla (Griseb.) Nash
Description: as §1, §2, §3, §4, §5, §6, §7

ECHOR = test: Example VI in-water applied ternary mixtures, greenhouse, transplanted paddy rice weeds; format: in vivo, Echinochloa oryzoides (Ard.) Fritsch
Description: (§15) Weed seeds or nutlets of the desired test plant species were planted in puddled soil (mud) prepared by mixing a shredded, non-sterilized mineral soil (50.5 percent silt, 25.5 percent clay, and 24 percent sand, with a pH of about 7.6 and an organic matter content of about 2.9 percent) and water at a 1:1 volumetric ratio. The prepared mud was dispensed in 365 mL aliquots into 16-ounce (oz.) non-perforated plastic pots with a surface area of 86.59 square centimeters (cm^2) leaving a headspace of 3 centimeters (cm) in each pot. Mud was allowed to dry overnight prior to planting or transplanting. Rice seeds were planted in Sun Gro MetroMix® 306 planting mixture, which typically has a pH of 6.0 to 6.8 and an organic matter content of about 30 percent, in plastic plug trays. Seedlings at the second or third leaf stage of growth were transplanted into 860 mL of mud contained in 32-oz. non-perforated plastic pots with a surface area of 86.59 cm^2 4 days prior to herbicide application. The paddy was created by filling the headspace of the pots with 2.5 to 3 cm of water. When required to ensure good germination and healthy plants, a fungicide treatment and/or other chemical or physical treatment was applied. The plants were grown for 4-22 days in a greenhouse with an approximate 14 hr. photoperiod which was maintained at about 29° C. during the day and 26° C. during the night. Nutrients were added as Osmocote® (19:6:12, N:P:K+minor nutrients) at 2 g per 16-oz. pot and 4 g per 32-oz. pot. Water was added on a regular basis to maintain the paddy flood, and supplemental lighting was provided with overhead metal halide 1000-Watt lamps as necessary. The plants were employed for testing when they reached the first through fourth true leaf stage.
(§16) Treatments consisted of the benzyl ester of 4-amino-3-chloro-5-fluoro-6-(4-chloro-2-fluoro-3-methoxy-phenyl)pyridine-2-carboxylic acid (Compound A), formulated as an SC (suspension concentrate), an ACCase inhibitor herbicide, and a third herbicidal component, each applied alone and in ternary combination. Forms of compound A were applied on an acid equivalent basis.
(§17) The ACCase inhibitor component was applied on an active ingredient basis and included cyhalofop-R-butyl formulated as Clincher® G and metamifop formulated as Metamifop EC. Other herbicidal components were applied on an active ingredient or acid equivalent basis depending on the compound and included penoxsulam formulated as Grasp® SC, bentazon sodium formulated as Basagran®, triclopyr […] (TEA) salt formulated as Grandstand® R, benzobicyclon formulated as Benzobicyclon, benfuresate formulated as Full Slot® WG, pyraclonil formulated as Pyraclon® Flowable, mefenacet (technical grade material), and pretilachlor (technical grade material).
(§18) Treatment requirements for each compound or herbicidal component were calculated based upon the rates being tested, the concentration of active ingredient or acid equivalent in the formulation, an application volume of 1 mL per component per pot, and an application area of 86.59 cm^2 per pot.
as §10
(§19) For technical grade compounds, a weighed amount was placed in an individual 100 to 200 mL glass vial and was dissolved in a volume of acetone to obtain concentrated stock solutions.
(§20) Applications were made by injecting with a pipetter appropriate amounts of the application solutions, into the aqueous layer of the paddy. Control plants were treated in the same manner with the solvent blank. Applications were made so that all treated plant material received the same concentrations of acetone and crop oil concentrate.
(§21) The treated plants and control plants were placed in a greenhouse as described above and water was added as needed to maintain a paddy flood. […]

FIMMI = test: as above; format: in vivo, Fimbristylis miliacea (L.) Vahl; details: Table 67, 50 gai/ha, 24 DAA
Description: as §15, §16, §17, §18, §10, §19, §20, §21

ECHCG = test: as above; format: in vivo, Echinochloa crus-galli (L.) Beauv.; details: Table 67, 100 gai/ha, 21 DAA
Description: as §15, §16, §17, §18, §10, §19, §20, §21

For `COC(=O)[C@@H](C)Oc1ccc(Oc2ncc(C(F)(F)F)cc2Cl)cc1` [Haloxyfop-methyl, methyl(2R)-2-[4-[[3-chloro-5-(trifluoromethyl)-2-pyridinyl]oxy]phenoxy]propanoate], which “Visual Weed Control (%) - 20 DAA SCPJU Obs” value (SCPJU [1]; 6.75 gai/ha) is on record?
The value was 0%.

And the “Visual Weed Control (%) - 20 DAA SCPJU Obs” value (SCPJU [1]; 13.5 gai/ha)?
The value was 0%.

And the “Visual Weed Control (%) - 20 DAA SCPJU Obs” value (SCPJU [1]; 27 gai/ha)?
The value was 0%.

What about the “Visual Weed Control (%) - 20 DAA ECHCO Obs” value (ECHCO; 6.75 gai/ha) of the same compound?
Its value is 0%.

And the “Visual Weed Control (%) - 20 DAA ECHCO Obs” value (ECHCO; 13.5 gai/ha)?
The value was 0%.

And the “Visual Weed Control (%) - 20 DAA ECHCO Obs” value (ECHCO; 27 gai/ha)?
The value was 0%.

What about the “Visual Weed Control (%) - 20 DAA IPOHE Obs” value (IPOHE; 6.75 gai/ha) of the same compound?
Its value is 0%.

What about the “Visual Weed Control (%) - 20 DAA IPOHE Obs” value (IPOHE; 13.5 gai/ha) of the same compound?
The value was 0%.

And the “Visual Weed Control (%) - 20 DAA IPOHE Obs” value (IPOHE; 27 gai/ha)?
Its value is 0%.

And the “Visual Weed Control (%) - 20 DAA CYPRO Obs” value (CYPRO; 13.5 gai/ha)?
Its value is 0%.

What about the “Visual Weed Control (%) - 20 DAA CYPRO Obs” value (CYPRO; 27 gai/ha) of the same compound?
The value was 0%.

What about the “Visual Weed Control (%) - 20 DAA SCPJU Obs” value (SCPJU [2]; 13.5 gai/ha) of the same compound?
Its value is 0%.

And the “Visual Weed Control (%) - 20 DAA SCPJU Obs” value (SCPJU [2]; 27 gai/ha)?
Its value is 0%.

And the “Visual Weed Control (%) - 20 DAA BRAPP Obs” value (BRAPP; 6.75 gai/ha)?
The value was 0%.

And the “Visual Weed Control (%) - 20 DAA BRAPP Obs” value (BRAPP; 13.5 gai/ha)?
The value was 0%.

With `CS(=O)(=O)c1ccc(C(=O)C2=C(Sc3ccccc3)C3CCC(C3)C2=O)c(Cl)c1` (stereo not shown) [Benzobicylon] as the compound, how does the “Visual Weed Control (%) - 24 DAA ECHOR Obs” value (ECHOR; Table 67, 25 gai/ha) read?
Its value is 10%.

And the “Visual Weed Control (%) - 24 DAA ECHOR Obs” value (ECHOR; Table 67, 50 gai/ha)?
The value was 10%.

What about the “Visual Weed Control (%) - 24 DAA FIMMI Obs” value (FIMMI) of the same compound?
Its value is 68%.

And the “Visual Weed Control (%) - 21 DAA ECHCG Obs” value (ECHCG)?
Its value is 20%.
